# Laboratory results as given in ChEMBL document CHEMBL1131776, “Potent, elective human beta3 adrenergic receptor agonists containing a substituted indoline-5-sulfonamide pharmacophore” (Bioorg Med Chem Lett, 1999).
# What was measured:
# [1] = target: T1, Beta-3 adrenergic receptor (Homo sapiens, UniProt P13945); test: Adenylyl cyclase activation as percent maximal stimulation with isoproterenol at 100 nM; format: functional
# Target sequence in this assay (P13945 whole entry, looked up): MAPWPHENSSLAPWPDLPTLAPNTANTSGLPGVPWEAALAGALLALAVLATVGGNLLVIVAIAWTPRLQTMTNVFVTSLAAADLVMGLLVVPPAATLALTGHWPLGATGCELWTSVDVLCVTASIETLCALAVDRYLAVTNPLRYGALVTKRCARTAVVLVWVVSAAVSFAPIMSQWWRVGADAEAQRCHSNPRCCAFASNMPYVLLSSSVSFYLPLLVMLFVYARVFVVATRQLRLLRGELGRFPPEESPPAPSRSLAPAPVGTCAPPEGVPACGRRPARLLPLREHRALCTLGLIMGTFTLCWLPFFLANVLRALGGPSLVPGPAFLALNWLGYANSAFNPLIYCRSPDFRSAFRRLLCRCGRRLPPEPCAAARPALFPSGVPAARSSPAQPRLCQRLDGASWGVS
# [2] = target: Beta-2 adrenergic receptor (Homo sapiens, UniProt P07550); test: biochemical
# Chain of Beta-2 adrenergic receptor (P07550 whole entry): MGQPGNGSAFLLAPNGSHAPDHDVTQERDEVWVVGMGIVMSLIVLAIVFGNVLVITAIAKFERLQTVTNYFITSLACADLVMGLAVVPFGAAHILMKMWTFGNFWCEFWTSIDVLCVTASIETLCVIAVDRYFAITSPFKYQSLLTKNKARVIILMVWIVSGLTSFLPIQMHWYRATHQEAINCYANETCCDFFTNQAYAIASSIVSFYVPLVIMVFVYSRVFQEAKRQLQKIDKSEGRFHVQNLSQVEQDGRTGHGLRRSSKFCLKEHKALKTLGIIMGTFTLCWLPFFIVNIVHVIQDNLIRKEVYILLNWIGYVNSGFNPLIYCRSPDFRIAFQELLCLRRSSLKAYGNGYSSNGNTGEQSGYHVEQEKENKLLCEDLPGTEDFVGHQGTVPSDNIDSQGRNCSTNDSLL
# Description: In vitro binding affinity towards cloned human beta-2 adrenergic receptor using [125I]iodocyanopindolol as radioligand to stimulate increase in cAMP in CHO cells
# [3] = target: Beta-1 adrenergic receptor (Homo sapiens, UniProt P08588); test: biochemical
# Chain of Beta-1 adrenergic receptor (P08588 whole entry): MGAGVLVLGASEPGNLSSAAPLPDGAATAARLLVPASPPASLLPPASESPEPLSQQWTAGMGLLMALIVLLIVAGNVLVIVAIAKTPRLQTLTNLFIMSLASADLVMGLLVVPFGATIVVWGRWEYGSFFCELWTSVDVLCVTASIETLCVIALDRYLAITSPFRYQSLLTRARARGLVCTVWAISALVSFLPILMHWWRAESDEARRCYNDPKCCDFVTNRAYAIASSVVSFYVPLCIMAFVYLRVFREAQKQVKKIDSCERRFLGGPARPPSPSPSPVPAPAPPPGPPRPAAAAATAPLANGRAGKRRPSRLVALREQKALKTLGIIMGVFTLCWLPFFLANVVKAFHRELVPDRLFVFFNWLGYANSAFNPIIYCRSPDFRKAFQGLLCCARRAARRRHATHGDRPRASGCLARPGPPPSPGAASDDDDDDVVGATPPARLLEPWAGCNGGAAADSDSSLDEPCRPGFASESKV
# Description: In vitro binding affinity towards cloned human beta-1 adrenergic receptor using [125I]iodocyanopindolol as radioligand to stimulate increase in cAMP in CHO cells
# [4] = target: T1, Beta-3 adrenergic receptor; test: In vitro agonistic activity against cloned human beta-3 adrenergic receptor […] increase in cAMP in CHO cells; format: functional, cell-based
# Target sequence in this assay (P13945 whole entry): as the sequence (P13945 whole entry, looked up) above
SMILES,Activation [1] [%],IC50 [2] [nM],IC50 [3] [nM],EC50 [4] [nM]
O=S(=O)(Nc1ccccc1)c1ccc2c(c1)CCN2c1noc(CCCC2CCCC2)n1,20,42,330,
CCCCCCc1csc(N2CCc3cc(S(=O)(=O)Nc4ccccc4)ccc32)n1,,510,1400,0.9
O=S(=O)(Nc1ccccc1)c1ccc2c(c1)CCN2c1nc(CCCC2CCCC2)cs1,,900,4000,3.2
CCCCCCNC(=O)N(C)c1ccc(S(=O)(=O)Nc2ccc(CCNC[C@H](O)c3cccnc3)cc2)cc1,20,10000,10000,
O=S(=O)(Nc1ccccc1)c1ccc2c(c1)CCN2c1cccc(CCCC2CCCC2)c1,,7500,4000,5
CCCCCCCCc1cccc(N2CCc3cc(S(=O)(=O)Nc4ccccc4)ccc32)n1,,63,220,1
CCCCCCCCc1csc(Nc2ccc(S(=O)(=O)Nc3ccccc3)cc2)n1,,340,650,0.8
O=S(=O)(Nc1ccccc1)c1ccc2c(c1)CCN2c1cccc(CCCC2CCCC2)n1,,450,3000,1.7
CCCCCCCCNC(=O)N1CCc2cc(S(=O)(=O)Nc3ccccc3)ccc21,,630,1000,0.73
Cc1csc(N2CCc3cc(S(=O)(=O)Nc4ccccc4)ccc32)n1,,750,4000,8.1
O=S(=O)(Nc1ccc(CCNC[C@H](O)COc2ccc(O)cc2)cc1)c1ccc2c(c1)CCN2,,,,0.65
CCCCCCCCc1ccnc(N2CCc3cc(S(=O)(=O)Nc4ccccc4)ccc32)n1,,530,1000,2.4
CCCCCCCCc1csc(N(C)c2ccc(S(=O)(=O)Nc3ccccc3)cc2)n1,,440,1500,5.5

# Continued, values first:
Activation [1] [%],IC50 [2] [nM],IC50 [3] [nM],EC50 [4] [nM],SMILES
,460,700,1.8,CCCCCCc1cccc(N2CCc3cc(S(=O)(=O)Nc4ccccc4)ccc32)c1
,36000,40000,6.9,CCCCCCNC(=O)N1CCc2cc(S(=O)(=O)Nc3ccccc3)ccc21
,2000,10000,88,CCCCCCC(=O)N1CCc2cc(S(=O)(=O)Nc3ccccc3)ccc21
,1000,970,18,CCCCCCCCN(C)C(=O)N1CCc2cc(S(=O)(=O)Nc3ccccc3)ccc21
,180,4200,3.7,CCCCCCCCc1cnc(N2CCc3cc(S(=O)(=O)Nc4ccccc4)ccc32)o1
,620,1400,5.1,CCCCCCc1ccnc(N2CCc3cc(S(=O)(=O)Nc4ccccc4)ccc32)n1
,2500,10000,55,CN(CCc1ccccc1)C(=O)N1CCc2cc(S(=O)(=O)Nc3ccccc3)ccc21
,52,600,13,CCCCCCc1nc(N2CCc3cc(S(=O)(=O)Nc4ccccc4)ccc32)no1
,240,1800,1.6,CCCCCCc1ccc(N2CCc3cc(S(=O)(=O)Nc4ccccc4)ccc32)nc1
,6500,10000,47,CCCCCCN(C)C(=O)N1CCc2cc(S(=O)(=O)Nc3ccccc3)ccc21
17,8000,3000,,CN(C(=O)N1CCc2cc(S(=O)(=O)Nc3ccccc3)ccc21)C(C)(C)Cc1ccccc1
,1500,2500,1.3,CCCCCCCCc1cccc(N2CCc3cc(S(=O)(=O)Nc4ccccc4)ccc32)c1
,7300,100000,55,CNC(=O)N1CCc2cc(S(=O)(=O)Nc3ccccc3)ccc21
,140,900,1.2,CCCCCCc1cccc(N2CCc3cc(S(=O)(=O)Nc4ccccc4)ccc32)n1
,1000,1800,7,CCCCCCCCC(=O)N1CCc2cc(S(=O)(=O)Nc3ccccc3)ccc21
,1300,2600,0.93,CCCCCCCCc1csc(N2CCc3cc(S(=O)(=O)Nc4ccccc4)ccc32)n1
,100,580,31,CCCCCCCCc1nc(N2CCc3cc(S(=O)(=O)Nc4ccccc4)ccc32)no1
8,7000,9000,,CN(C)C(=O)N1CCc2cc(S(=O)(=O)Nc3ccccc3)ccc21
